Test results taken from patent US20260258015A1, “CRYSTALLINE FORMS OF 2-(4-(4-(AMINOMETHYL)-1-OXO-1,2- DIHYDROPHTHALAZIN-6-YL)-1-METHYL-1H- PYRAZOL-5-YL)-4-CHLORO-6-CYCLOPROPOXY-3-FLUOROBENZONITRILE” (MIRATI THERAPEUTICS, INC., priority 2023, published 2026).

How the values were obtained:
[1] = acids (counterions) used in the salt screen of Compound 1; cited from earlier work
[2] = Behaviour of the isolated solid after air drying at ambient condition (hygroscopicity); format: physicochemical; conditions: solid from slurry of free base, sulfuric acid and THF; air dried at ambient condition
Description: Using the amorphous free base from Example 1, 64 salt screen experiments were conducted using 16 acids in four solvent systems, plus four blank experiments in each respective solvent system. Slurry methods as disclosed herein were used to provide salt polymorphs of Compound 1. […] After magnetically stirring for four days at room temperature, any precipitation was isolated by centrifugation. If there was no precipitation after four days at room temperature, the clear solutions were transferred to stir at 5° C. to induce crystallization for 24 hours. If still no solids were observed, the final clear solution was subjected to slow evaporation at room temperature for four days. Any isolated solid was air dried at ambient condition before analysis.
[…]. As such, DSC/TGA data were not collected.

O=C(O)CC(O)C(=O)O (centres unmarked) [Malic acid]
pKa [1]: 3.16

Cn1ncc(-c2ccc3c(=O)[nH]nc(CN)c3c2)c1-c1c(F)c(Cl)cc(OC2CC2)c1C#N.O=S(=O)(O)O [sulfate salt Form A, 2-(4-(4-(aminomethyl)-1-oxo-1,2-dihydrophthalazin-6-yl)-1-methyl-1H-pyrazol-5-yl)-4-chloro-6-cyclopropoxy-3-fluorobenzonitrile sulfate]
state of the solid after air drying (hygroscopicity) [2]: remained a wet paste, likely due to hygroscopicity
